According to PubChem BioAssay (NCI):
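Assay format: 96-well plates, 48-hour exposure. The concentration for 50% growth inhibition is given as GI50. At the TGI there is no net growth.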

Experiments:
Experiment in all cases: NCI tumour cell line growth inhibition, 48 h
[1] = tested on: SF-539 CNS
[2] = tested on: HS 578T breast
[3] = tested on: MDA-MB-435
[4] = tested on: HCT-116 colon
[5] = tested on: MDA-MB-231 breast
[6] = tested on: NCI-H522 lung
[7] = tested on: U251 CNS
[8] = tested on: NCI-H23 lung
[9] = tested on: 786-0 renal
[10] = tested on: OVCAR-5 ovarian
[11] = tested on: PC-3 prostate
[12] = tested on: A498 renal
[13] = tested on: UACC-62 melanoma
[14] = tested on: M14 melanoma
[15] = tested on: KM12 colon
[16] = tested on: UACC-257 melanoma
[17] = tested on: HL-60(TB) leukemia
[18] = tested on: SF-295 CNS
[19] = tested on: SK-MEL-5 melanoma
[20] = tested on: NCI-H460 lung
[21] = tested on: SK-OV-3 ovarian
[22] = tested on: SK-MEL-2 melanoma
[23] = tested on: IGROV1 ovarian
[24] = tested on: BT-549 breast
[25] = tested on: CAKI-1 renal
[26] = tested on: OVCAR-8 ovarian
[27] = tested on: COLO 205 colon
[28] = tested on: CCRF-CEM leukemia

CO[C@H]1/C=C/O[C@@]2(C)Oc3c(C)c(O)c4c(c3C2=O)C(=O)C(/C=N/N(c2ccccc2)c2ccccc2)=C(NC(=O)/C(C)=C\C=C\[C@H](C)[C@H](O)[C@@H](C)[C@@H](O)[C@@H](C)[C@H](OC(C)=O)[C@@H]1C)C4=O
GI50 [1]: 1.8 µM
TGI [1]: 3.56 µM
GI50 [2]: 2.04 µM
TGI [2]: 5.39 µM
GI50 [3]: 1.68 µM
TGI [3]: 3.09 µM
GI50 [4]: 1.47 µM
TGI [4]: 2.96 µM
GI50 [5]: 1.7 µM
TGI [5]: 3.35 µM
GI50 [6]: 1.72 µM
TGI [6]: 3.42 µM
GI50 [7]: 1.86 µM
TGI [7]: 3.4 µM
GI50 [8]: 2.44 µM
TGI [8]: 5.1 µM
GI50 [9]: 1.83 µM
TGI [9]: 3.44 µM
GI50 [10]: 1.83 µM
TGI [10]: 3.72 µM
GI50 [11]: 1.32 µM
TGI [11]: 2.82 µM
GI50 [12]: 1.43 µM
TGI [12]: 2.84 µM
GI50 [13]: 1.51 µM
TGI [13]: 2.92 µM
GI50 [14]: 1.79 µM
TGI [14]: 3.49 µM
GI50 [15]: 1.75 µM
TGI [15]: 3.24 µM
GI50 [16]: 1.84 µM
TGI [16]: 3.9 µM
GI50 [17]: 2.17 µM
TGI [17]: 4.7 µM
GI50 [18]: 1.59 µM
TGI [18]: 3 µM
GI50 [19]: 1.64 µM
TGI [19]: 3.02 µM
GI50 [20]: 1.77 µM
TGI [20]: 3.44 µM
GI50 [21]: 1.81 µM
TGI [21]: 3.28 µM
GI50 [22]: 1.86 µM
TGI [22]: 3.6 µM
GI50 [23]: 2.13 µM
TGI [23]: 4.23 µM
GI50 [24]: 1.61 µM
TGI [24]: 3.06 µM
GI50 [25]: 1.72 µM
TGI [25]: 3.38 µM
GI50 [26]: 1.99 µM
TGI [26]: 4.21 µM
GI50 [27]: 1.75 µM
TGI [27]: 3.46 µM
GI50 [28]: 1.83 µM
TGI [28]: 4.84 µM
